The text below walks through data of patent US20140018424A1, “PREVENTIVE EFFECT OF CITRULLINE ON THE SPONTANEOUS DEVELOPMENT OF TUMORS” (UNIVERSITE PARIS DESCARTES, priority 2011, published 2014).

SMILES strings stand for the structures.

What all share (assay type): in vivo, male Sprague-Dawley rats
One data set has as its system polyamines. The data set can be described thus: Level of polyamines in liver, jejunum and ileum of aged rats. On the procedure:
(§1) Thirty-nine male Sprague-Dawley rats aged 20 months and free of tumours (Charles River, L'Arbresle, France) are used. They are raised individually in cages, at a temperature of 20-23° C., subjected to a cycle of 12 hours of light alternating with 12 hours of darkness. They have free access to water. For the acclimatization period, all the rats are fed a standard diet (59% carbohydrates, 3% lipids, 17% proteins and 21% fibres) ad libitum (UAR of 0.4 Dietex, Villemoisson-sur-Orge, France) for 2 weeks. The animals are cared for in accordance with French regulations on the protection of animals used for experimental and scientific purposes (D 2001-486) and with the Regulations of the European Community (Official Journal of the European Community, L538 12:18:1986).
(§2) After the acclimatization period, the rats are randomly divided into 2 groups.
In the “citrulline” group (CIT, n=19), the rats are fed ad libitum for 12 weeks with a citrulline-based supplement (1 g.kg^−1.day^−1 of citrulline) mixed with their standard diet. The dose of citrulline is calculated by extrapolation of the doses used in humans, taking into account the fact that the metabolic rate and nitrogen requirements are 10 times greater in rodents than those measured in humans and very close to the dose of arginine administered to rats for 12 weeks by Jobgen W. et al. (J Nutr 2009;139:230-7). This dose corresponds to approximately 9% of the nitrogen intake, i.e. approximately 7g/day in the healthy adult volunteer.
In the “non-essential amino acids” group (NEAA, n=20), the rats are fed ad libitum for 12 weeks with a standard food rendered isonitrogenous with respect to the citrulline group by the addition of non-essential amino acids: […], serine, alanine and glycine in an equimolar ratio.
The rats are euthanized in the post-absorptive state after treatment for 12 weeks. The statistical studies are carried out using Statview® software

Another data set deals with tumours. The data set can be described thus: Incidence of tumours after euthanasia in aged rats. The settings on record: after euthanasia at 12 weeks; NEAA vs CIT p<0.05. On the procedure: as §1, §2
(§3) In the “citrulline” group (CIT, n=19), the rats are fed ad libitum for 12 weeks with a citrulline-based supplement (1 g.kg^−1.day^−1 of citrulline) mixed with their standard diet. The dose of citrulline is calculated by extrapolation of the doses used in humans, taking into account the fact that the metabolic rate and nitrogen requirements are 10 times greater in rodents than those measured in humans and very close to the dose of arginine administered to rats for 12 weeks by Jobgen W. et al. (J Nutr 2009;139:230-7). […]

The nature of data set [1]: Body weight of aged rats before and after 12 weeks of supplementation.
The subject of a further data set is aged healthy rats. Briefly: Mortality over 12 weeks in aged healthy rats fed supplemented diet. Conditions: rats aged 20 months, supplemented diet ad libitum for 12 weeks; NEAA vs CIT p<0.05. On the procedure: as §1, §2, §3

In the case of `NC(=O)NCCCC(N)C(=O)O` (stereo not drawn) [CIT, 2-amino-5-(carbamoylamino)pentanoic acid], in the data set with polyamines (12 weeks of supplementation), the “effect of supplementation on putrescine” value is “significant increase”. The same compound showed an Ileum putrescine in the data set on polyamines (after 12 weeks, p 0.028) of 79.8 ± 25. The compound also had a Liver putrescine in the data set on polyamines (after 12 weeks, p 0.034) of 17.1 ± 14.5. In the data set with polyamines (after 12 weeks, p NS), this compound yielded an Ileum spermidine of 374 ± 70, an Ileum spermine of 203 ± 43, a Jejunum putrescine of 82.7 ± 36 and a Jejunum spermidine of 478 ± 200. In the data set with polyamines (after 12 weeks, p NS), this compound registered a Jejunum spermine of 297 ± 88, a Liver spermidine of 372 ± 90 and a Liver spermine of 557 ± 245. The “incidence of tumours (rats with tumours/rats assessed)” value in the data set on tumours was 0/19. The “effect of supplementation on body weight” value in data set [1] (12 weeks, 1 g.kg^-1.day^-1 in the diet) is recorded as “does not affect the body weight”. The same compound gave a Final body weight in data set [1] (after the 12-week supplementation, NEAA vs CIT N.S) of 630 ± 13. In data set [1] (before the 12-week supplementation, NEAA vs CIT N.S), this compound showed an Initial body weight of 669 ± 16. In addition, the “mortality over 12 weeks (dead rats/rats in group)” value with aged healthy rats is reported as 0/19.
